Entries after “also recorded” stand apart in the source; their conditions may differ.
What was measured:
[1] = system: CHO-K1 cells (7WD10 cells) that stably expressed APP protein; test: Aβ protein production inhibition experiment in 7WD10 cells (sAPPβ, βCTF, Aβ); type: cell-based
Description: (§1) An experiment was conducted wherein #1, #2, and #4 polypeptides were reacted with CHO-K1 cells (7WD10 cells) that stably expressed APP protein and transiently expressed Notch to confirm the production of Aβ protein and cleavage of Notch protein.

[2] = system: Notch transiently expressed in CHO-K1 cells (7WD10 cells); test: Cleavage of Notch protein (NICD) in 7WD10 cells; type: cell-based; conditions: for NICD in the cell lysate: polypeptide 25 or 50 μM; for abundance of the NICD in the cell lysate: polypeptide 1, 5, 10, 20, and 50 μM
Description: as §1

[3] = target: β-secretase against APP (APP-EQ-FLAG) (Homo sapiens, UniProt P05067); test: β-Secretase activity inhibition experiment in vitro, APP-EQ-FLAG substrate; type: biochemical; conditions: polypeptide 50 μM, 4 hours, 37° C., Western blotting
Sequence of β-secretase against APP (APP-EQ-FLAG) (P05067 with tags, fused parts or gaps): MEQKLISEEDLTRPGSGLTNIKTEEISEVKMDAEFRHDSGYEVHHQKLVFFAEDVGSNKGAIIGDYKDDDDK
Description: A solution containing the polypeptide having APP (APP-EQ-FLAG: SEQ ID NO: 18) as shown in FIG. 5(A) was prepared in such a manner that its final concentration was 50 nM.
To this solution, 9-7 polypeptide, 6-5 polypeptide, #1 polypeptide, #2 polypeptide, #3 polypeptide, #4 polypeptide, #5 polypeptide, #6 polypeptide, #7 polypeptide, #8 polypeptide, #9 polypeptide, and #10 polypeptide were added in such a manner that each solution had the final concentration of 50 μM, followed by reacting with 50 μL β-secretase (0.02 U/μL) for 4 hours. The reaction temperature was 37° C. As a negative control experiment, DMSO was used in place of the 12 types of polypeptides mentioned above.
After completion of the reaction, each sample was subjected to Western blotting using a monoclonal antibody (82E-1) that specifically recognizes the N terminal of APP-EQ-FLAG as shown in FIG. 5(A). Thereafter, the amount of Aβ33-FLAG protein separated by β-secretase was measured.
An experiment was conducted in the same manner as Experimental Example 4 described above except that S4 and #4 polypeptides were used as the polypeptide and the amounts of these polypeptides added were adjusted so that the final concentrations were 1, 5, 10, 20, 50, and 100 μM.

[4] = target: γ-secretase against βCTF (C99-FLAG) (Homo sapiens, UniProt P05067); test: γ-Secretase activity inhibition experiment in vitro, C99-FLAG substrate; type: biochemical; conditions: for cleavage activity of γ-secretase against βCTF (Aβ40 from C99-FLAG): polypeptide 50 μM, 4 hours, 37° C., Western blotting
Sequence of γ-secretase against βCTF (C99-FLAG) (P05067 with tags, fused parts or gaps): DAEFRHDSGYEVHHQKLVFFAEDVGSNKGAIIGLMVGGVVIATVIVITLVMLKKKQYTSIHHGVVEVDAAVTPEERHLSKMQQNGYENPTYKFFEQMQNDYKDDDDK
Description: (§2) A polypeptide having βCTF (C99-FLAG: SEQ ID NO: 16) and mouse-derived Notch protein having a FLAG peptide at the C-terminal side (modification of NCBI Accession No. Q01705.2; SEQ ID NO: 17; hereunder referred to as “Notch”) shown in FIG. 2(A) were each made into a solution having a final concentration of 50 nM.
(§3) To these solutions, 9-7 polypeptide, 6-5 polypeptide, #1 polypeptide, #2 polypeptide, #3 polypeptide, and #4 polypeptide were added in such a manner that the final concentrations were 50 μM, followed by reacting with 50 μL of CHAPSO-solubilized membrane fraction (γ-secretase-containing fraction) for 4 hours. The reaction temperature was 37° C. As a negative control experiment, DMSO was used in place of the six types of polypeptides described above.
(§4) Each sample after completion of the reaction was measured in the following manner. As shown in FIG. 2(A), a sample using C99-FLAG was subjected to Western blotting using a monoclonal antibody (82E-1) that specifically recognizes the N terminal of C99-FLAG, and the amount of Aβ40 protein produced by the cleavarage by γ-secretase was measured. In contrast, the reaction sample using Notch-FLAG was subjected to Western blotting using an anti-FLAG monoclonal antibody, and the amount of NICD produced to the separete by γ-secretase was also measured. FIG. 2(B) and FIG. 2(C) show the results.
(§5) An experiment was conducted in the same manner as in Experimental Example 1 described above, except that only #1 polypeptide was used and the amount of #1 polypeptide was selected so that the final concentrations were 0.5, 1, 5, 10, 20, and 50 μM.
(§6) An experiment was conducted in the same manner as in Experimental Example 1 described above, except that S4 polypeptide was used as the polypeptide, and each addition amount was set in such a manner that the final concentrations were 1, 5, 10, 20, and 50 μM. In this Experimental Example, #4 polypeptide was added in such a manner that the final result was 50 μM.

[5] = target: γ-secretase against Notch (Mus musculus, UniProt Q01705, V1997L); test: γ-Secretase activity inhibition experiment in vitro, Notch-FLAG substrate; type: biochemical
Sequence of γ-secretase against Notch (Q01705 with tags, fused parts or gaps V1997L): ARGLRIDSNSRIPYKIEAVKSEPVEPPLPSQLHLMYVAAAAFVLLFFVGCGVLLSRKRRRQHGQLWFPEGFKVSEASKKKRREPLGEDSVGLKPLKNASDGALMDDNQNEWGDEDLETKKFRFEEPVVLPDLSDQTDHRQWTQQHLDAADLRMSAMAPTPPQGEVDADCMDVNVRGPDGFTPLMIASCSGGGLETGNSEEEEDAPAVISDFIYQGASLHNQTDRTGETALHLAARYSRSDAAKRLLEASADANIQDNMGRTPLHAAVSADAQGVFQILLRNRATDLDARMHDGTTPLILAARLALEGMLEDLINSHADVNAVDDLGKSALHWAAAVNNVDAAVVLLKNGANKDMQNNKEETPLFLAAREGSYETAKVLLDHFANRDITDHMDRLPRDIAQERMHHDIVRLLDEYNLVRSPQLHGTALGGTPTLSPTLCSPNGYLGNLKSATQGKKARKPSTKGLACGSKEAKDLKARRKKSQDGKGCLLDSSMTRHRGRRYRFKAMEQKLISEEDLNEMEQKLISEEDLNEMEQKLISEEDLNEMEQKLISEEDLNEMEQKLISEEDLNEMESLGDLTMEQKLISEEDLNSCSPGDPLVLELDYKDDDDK
Description: as §2, §3, §4, §5, §6

[6] = system: CHO-K1 cells; test: Mouse Aβ production inhibition experiment, CHO-K1 cells; type: cell-based; conditions: polypeptide 20 μM, CHO-K1 cells expressing mouse-type APP, anti-mouse Aβ antibody Western blotting
Description: (§7) #1, #2, and #4 polypeptides were added to the culture solutions of CHO-K1 cells and Neuro 2A cells (N2A) in such a manner that the final concentration was 20 μM. As a control, L685458 (i.e., a γ-secretase inhibitor) and DMSO were added thereto in such a manner that the final concentration was 20 μM.
(§8) Thereafter, Aβ contained in the cell culture medium was identified by using a Western-blotting method with an antibody (anti-mouse Aβ antibody) that recognizes Aβ. […] In the figure, L indicates L685458, which is a γ-secretase inhibitor (final concentration of 1 μM).

[7] = system: Neuro 2A cells (N2A); test: Mouse Aβ production inhibition experiment, Neuro 2A cells; type: cell-based; conditions: polypeptide 20 μM, Neuro2A cells expressing mouse-type APP, anti-mouse Aβ antibody Western blotting
Description: as §7, §8

[8] = reported in NPL 1; cited from earlier work
[9] = polypeptide 1, 5, 10, 20, and 50 μM
[10] = polypeptide 0.5, 1, 5, 10, 20, and 50 μM

In the case of “FRBGWVYTYTV (FRXGWVYTYTV; HELM PEPTIDE1{[ac].F.R.[O=C([C@H](Cc1ccc(-c2ccccc2)cc1)N[*:1])[*:2]].G.W.V.Y.T.Y.T.V.[am]}$$$$V2.0; SMILES CC(=O)N[C@@H](Cc1ccccc1)C(=O)N[C@@H](CCCNC(=N)N)C(=O)N[C@@H](Cc1ccc(-c2ccccc2)cc1)C(=O)NCC(=O)N[C@@H](Cc1c[nH]c2ccccc12)C(=O)N[C@H](C(=O)N[C@@H](Cc1ccc(O)cc1)C(=O)N[C@H](C(=O)N[C@@H](Cc1ccc(O)cc1)C(=O)N[C@H](C(=O)N[C@H](C(N)=O)C(C)C)[C@@H](C)O)[C@@H](C)O)C(C)C) [S2, B is L-4,4′-biphenylalanine (Bph) residue]”, the “Aβ protein in the cell culture medium” value ([1]; polypeptide final concentration of 50 μM) is reported as “exhibited the Aβ protein production inhibition effect almost to the same level as #4 polypeptide and S4 polypeptide” and the “NICD in the cell lysate” value [2] is reported as “did not have any influence on NICD”.
For “MGRVNCDCYCIGHYCYCYYCHNI (Ac-MGRVNCDCYCIGHYCYCYYCHNI-NH2; cysteine pairing not given here) [#8]”, the “cleavage activity of β-secretase against APP (Aβ33-FLAG)” value (shortened to “cleavage activity of β-secretase”) [3] was “inhibit the cleavage activity of β-secretase against APP more intensely”.
With “MPTVYCDCYCAYNACYCYYCRSD (Ac-MPTVYCDCYCAYNACYCYYCRSD-NH2; cysteine pairing not given here) [#10]” the “cleavage activity of β-secretase” value [3] was “inhibit the cleavage activity of β-secretase against APP more intensely”.
With “MLYTSCDCYCDAFSCFCYSCGPY (Ac-MLYTSCDCYCDAFSCFCYSCGPY-NH2; cysteine pairing not given here) [#6]” the “cleavage activity of β-secretase” value [3] was “inhibit the cleavage activity of β-secretase against APP more intensely”.
With “MGLISCDCYCDSTACFCYSCTDF (Ac-MGLISCDCYCDSTACFCYSCTDF-NH2; cysteine pairing not given here) [#3]” the “cleavage activity of β-secretase” value [3] was “inhibit the cleavage activity of β-secretase against APP more intensely”.
With “MLICDCYCDPRSCICGSCTLV (Ac-MLICDCYCDPRSCICGSCTLV-NH2; cysteine pairing not given here) [L13]” the “Aβ protein in the cell culture medium” value ([1]; polypeptide 25 or 50 μM) was “did not inhibit the production of Aβ” and the “NICD in the cell lysate” value [2] was “did not have any affect on NICD”.
In the case of “MSIRVCDCYCHGDLCFCYSCINS (Ac-MSIRVCDCYCHGDLCFCYSCINS-NH2; cysteine pairing not given here) [#1]”, the “Aβ protein in the cell culture medium (released Aβ)” value (“Aβ protein … (released Aβ)” for short) [1, 9] is reported as “decreased depending on the concentration”, the “Aβ protein in the cell lysate (intracellular Aβ)” value (“Aβ protein in the cell lysate” for short) [1, 9] is reported as “no longer present in a manner dependent on the final concentration” and the “sAPP in the cell lysate” value [1, 9] is reported as “no longer present in a manner dependent on the final concentration”. The “βCTF (C99) in the cell lysate” value [1, 9] was “no longer present in a manner dependent on the final concentration”, the “cleavage activity of γ-secretase against βCTF (Aβ40 from C99-FLAG)” value [4] was “inhibited more cleavage activity of γ-secretase against βCTF; also recorded: inhibited the cleavage activity of γ-secretase against Aβ protein” and the “cleavage activity of γ-secretase against βCTF” value [4, 10] was “more intensively inhibits the cleavage activity of γ-secretase against βCTF in a concentration-dependent manner; also recorded: inhibited the cleavage activity of γ-secretase against βCTF in a concentration-dependent manner”. The “cleavage activity of β-secretase” value [3] was “inhibit the cleavage activity of β-secretase against APP more intensely”, the “cleavage activity of γ-secretase against Notch (NICD)” value ([5]; polypeptide 50 μM, 4 hours, 37° C., Western blotting) was “did not inhibit the cleavage activity against Notch” and the “cleavage activity of γ-secretase against Notch (NICD)” value [5, 10] was “did not inhibit the cleavage activity of γ-secretase against Notch”. For the same compound, the “production of Aβ in the culture medium” value [6] was “the production of Aβ in the culture medium was reduced”, the “production of Aβ in the culture medium” value [7] was “the production of Aβ in the culture medium was reduced” and the “abundance of the NICD in the cell lysate” value [2] was “not decreased”.
With `CC(C)C[C@H](NC(=O)[C@H](Cc1ccccc1)C[C@@H](O)[C@H](Cc1ccccc1)NC(=O)OC(C)(C)C)C(=O)N[C@@H](Cc1ccccc1)C(N)=O` [L685458, reference compound] the “Aβ protein … (released Aβ)” value ([1]; L685458 1 μM) was “decreased”, the “Aβ protein in the cell lysate” value ([1]; L685458 1 μM) was “decrease in βCTF (C99) and Aβ protein was also observed” and the “sAPP in the cell lysate” value ([1]; L685458 1 μM) was “such a phenomenon was not observed”. The “βCTF (C99) in the cell lysate” value ([1]; L685458 1 μM) was “decrease in βCTF (C99) and Aβ protein was also observed” and the “amount of NICD in the cell lysate” value ([2]; L685458 1 μM) was “the amount of NICD was decreased”.
For `C[C@H](NC(=O)[C@@H](O)c1cc(F)cc(F)c1)C(=O)N[C@@H]1C(=O)N(C)c2ccccc2-c2ccccc21` [LY-411,575], the “effect on the thymus” value [8] is given as “induces atrophy of the thymus” and the “number of mature B cells in the spleen” value [8] is given as “reduces the number of mature B cells in the spleen”.
For “MPLSICDCYCISTICYCYFCVHR (Ac-MPLSICDCYCISTICYCYFCVHR-NH2; cysteine pairing not given here) [#9]”, the “cleavage activity of β-secretase” value [3] was “inhibit the cleavage activity of β-secretase against APP more intensely”.
With “MDTVICDCYCDNYVCFCYSCSHV (Ac-MDTVICDCYCDNYVCFCYSCSHV-NH2; cysteine pairing not given here) [#2]” the “Aβ protein … (released Aβ)” value [1, 9] was “decreased depending on the concentration”, the “Aβ protein in the cell lysate” value [1, 9] was “no longer present in a manner dependent on the final concentration” and the “sAPP in the cell lysate” value [1, 9] was “no longer present in a manner dependent on the final concentration”. For the same compound, the “βCTF (C99) in the cell lysate” value [1, 9] was “no longer present in a manner dependent on the final concentration”, the “cleavage activity of γ-secretase against βCTF (Aβ40 from C99-FLAG)” value [4] was “inhibited more cleavage activity of γ-secretase against βCTF” and the “cleavage activity of β-secretase” value [3] was “inhibit the cleavage activity of β-secretase against APP more intensely”. The “production of Aβ in the culture medium” value [6] was “the production of Aβ in the culture medium was reduced”, the “production of Aβ in the culture medium” value [7] was “the production of Aβ in the culture medium was reduced” and the “abundance of the NICD in the cell lysate” value [2] was “not decreased”.
In the case of “MVPVVCDCYCFLSVCFCYSCYIT (Ac-MVPVVCDCYCFLSVCFCYSCYIT-NH2; cysteine pairing not given here) [#5]”, the “cleavage activity of β-secretase” value [3] is reported as “inhibit the cleavage activity of β-secretase against APP more intensely”.

From US9045525B2, “Amyloid β-protein-specific production-inhibiting polypeptide” (THE DOSHISHA, priority 2012, dated 2015)
